Results reported in publication PMC4778748 (Bioorganic & medicinal chemistry, 2016).

Assays:
[1] = system: dog ortholog of 12/15-LOX; details: cited from earlier work
[2] = cited from earlier work
[3] = system: rat ortholog of 12/15-LOX; details: cited from earlier work
h12/15-LOX [4] = biological target: T1, h12/15-LOX (Homo sapiens, UniProt P16050); assay: Lipoxygenase UV-Vis-based IC50 assay; assay type: biochemical; details: for loss of potency against h12/15-LOX relative to parent: SAR comparison of IC50 values
T1 sequence (P16050 1-662): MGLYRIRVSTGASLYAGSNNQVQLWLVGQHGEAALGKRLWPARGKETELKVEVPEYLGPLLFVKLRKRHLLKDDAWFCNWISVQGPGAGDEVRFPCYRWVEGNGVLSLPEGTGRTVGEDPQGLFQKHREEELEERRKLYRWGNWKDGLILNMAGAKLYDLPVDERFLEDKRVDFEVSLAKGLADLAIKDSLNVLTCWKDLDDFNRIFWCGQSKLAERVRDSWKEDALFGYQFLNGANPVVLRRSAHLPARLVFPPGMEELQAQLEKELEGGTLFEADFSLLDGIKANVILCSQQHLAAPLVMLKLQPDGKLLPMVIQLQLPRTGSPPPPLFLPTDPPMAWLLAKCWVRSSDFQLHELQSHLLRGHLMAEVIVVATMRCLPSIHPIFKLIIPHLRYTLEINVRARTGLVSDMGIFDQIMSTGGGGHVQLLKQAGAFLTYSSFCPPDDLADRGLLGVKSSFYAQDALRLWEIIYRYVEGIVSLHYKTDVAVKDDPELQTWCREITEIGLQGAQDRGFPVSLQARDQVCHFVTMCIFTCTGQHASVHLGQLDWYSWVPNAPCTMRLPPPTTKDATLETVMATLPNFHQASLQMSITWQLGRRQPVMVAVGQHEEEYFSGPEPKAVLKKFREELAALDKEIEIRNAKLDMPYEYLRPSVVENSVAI

HT-22 cells = assay: HT-22 cellular assay; assay type: cell-based; details: Mus musculus, HT-22, read-out: approximate cellular EC50 (ex vivo IC50) in HT-22
[5] = Solubility limit of inhibitor in enzyme assay; assay type: physicochemical; details: concentrations above 35 µM
h12/15-LOX [6] = biological target: T1, h12/15-LOX; assay: Pseudoperoxidase assay; details: 20 µM inhibitor, 20 µM 13-HpODE, 60 nM enzyme
h12/15-LOX [7] = biological target: T1, h12/15-LOX; assay: Steady-state inhibition kinetics
[8] = cited from earlier work; remark: listed apart in the source
[9] = cited from earlier work; remark: listed apart in the source
[10] = system: rabbit reticulocyte 12/15-LOX; details: cited from earlier work
h5-LOX = biological target: T2, h5-LOX (Homo sapiens, UniProt P09917); assay: Selectivity assay; assay type: biochemical; details: read-out: inhibition of h5-LOX (positive control)
T2 sequence (P09917 1-674): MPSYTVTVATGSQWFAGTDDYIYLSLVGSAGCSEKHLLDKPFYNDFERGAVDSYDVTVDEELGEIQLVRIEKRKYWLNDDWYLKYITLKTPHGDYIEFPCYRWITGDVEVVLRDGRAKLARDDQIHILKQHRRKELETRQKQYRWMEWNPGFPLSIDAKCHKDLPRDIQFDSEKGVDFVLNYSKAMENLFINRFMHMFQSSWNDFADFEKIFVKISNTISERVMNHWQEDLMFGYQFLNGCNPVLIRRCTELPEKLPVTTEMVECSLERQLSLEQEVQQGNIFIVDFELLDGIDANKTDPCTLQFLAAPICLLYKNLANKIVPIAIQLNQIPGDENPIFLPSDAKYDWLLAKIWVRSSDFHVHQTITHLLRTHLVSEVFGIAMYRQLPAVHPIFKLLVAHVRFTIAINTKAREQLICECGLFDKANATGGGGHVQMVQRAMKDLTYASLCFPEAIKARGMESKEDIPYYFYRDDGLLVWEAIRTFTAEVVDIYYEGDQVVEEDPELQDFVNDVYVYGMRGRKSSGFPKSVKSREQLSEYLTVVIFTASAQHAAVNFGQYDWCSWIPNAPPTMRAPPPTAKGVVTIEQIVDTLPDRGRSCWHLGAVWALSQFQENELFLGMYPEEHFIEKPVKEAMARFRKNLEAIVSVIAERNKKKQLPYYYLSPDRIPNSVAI

## O=C(Nc1ccc(F)cc1Cl)c1c[nH]nn1 [BLX-2477, N-(2-chloro-4-fluorophenyl)triazole-4-carboxamide]
[1]
  potency against dog ortholog: did not exhibit potency
[2]
  off-target effects in mini-pigs: adverse off-target effects
[3]
  potency against rat ortholog: did not exhibit potency

## Cc1ccc(O)c(-c2cc(C(=O)NCc3ccccc3)[nH]n2)c1 [Compound 3]
h12/15-LOX [4]
  loss of potency against h12/15-LOX relative to parent: over 10 fold

## COc1ccc(C(=O)c2c[nH]nc2-c2cc(C)ccc2O)cc1 [Compound 4]
h12/15-LOX [4]
  loss of potency against h12/15-LOX relative to parent: over 10 fold

## Cc1ccc(-c2cc(-c3ccc(C)cc3O)[nH]n2)cc1 [Compound 18]
h12/15-LOX [4]
  loss of potency against h12/15-LOX relative to parent: greater than 15 fold

## Cc1ccc(O)c(-c2cc(-c3ccccc3C)[nH]n2)c1 [Compound 99089]
HT-22 cells
  EC50: ~10 µM
h12/15-LOX [4]; read-out: %Inhibition (20 µM), 20 µM inhibitor, 10 µM AA, 0.01% Triton X-100
  inhibition at 20 µM: > 90%
[5]
  solubility in assay buffer: solubility problems
h12/15-LOX [6]
  degradation of 13-HpODE (redox activity): not observed
h12/15-LOX [7]
  Ki: 6 ± 3.3 µM
h12/15-LOX [7]; steady-state kinetics
  mode of inhibition: mixed type inhibitor

## O=C(OCC#CCSc1nnc(-c2cccc3ccccc23)o1)c1cccs1 [ML094, 4-(5-(Naphthalen-1-yl)-1,3,4-oxadiazol-2-ylthio)but-2-ynylthiophene-2-carboxylate]
[8]
  activity in cell-based assays: lacks activity

## CNc1oc(-c2cccc3ccccc23)nc1C#N [ML351, 5-(methylamino)-2-(naphthalene-1-yl)oxazole-4-carbonitrile]
[9]
  in vivo activity in mice: exhibits in vivo activity

## c1ccc2c(c1)SCc1c-2[nH]c2ccccc12 [PD-146176]
[10]
  IC50: 810 nM

## CC(c1cc2ccccc2s1)N(O)C(N)=O (stereo not shown) [Zileuton]
h5-LOX
  inhibition at 20 µM: 97%
